Tested on: K12877-001-R-J1-PDC complex spheroid viability
Experiment: Anticancer human tumor K12877-001-R-J1-PDC patient-derived lung adenocarcinoma cell line growth inhibition [RAS]
Conditions: for IC50: curve of first compound; for viability, T/C: stronger effect = lower value; active = viability on the fitted dose curve at most 10% of control; inactive = the rest
Method in brief: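 Tumour cells grown as complex spheroids with HUVEC endothelial cells and mesenchymal stem cells, treated with RAS pathway inhibitor combinations. Each agent spans half-log steps from near clinical Cmax, or 10 microM where Cmax is unknown.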

[1] = second compound 0.000949 µM, first compound 0.0316 µM
[2] = second compound 0.000949 µM, first compound 0.1 µM
[3] = second compound 0.000949 µM, first compound 0.316 µM
[4] = second compound 0.000949 µM, first compound 1 µM
[5] = second compound 0.000949 µM, first compound 3.16 µM
[6] = second compound 0.000949 µM, first compound 10 µM
[7] = second compound 0.003 µM, first compound 0.0316 µM
[8] = second compound 0.003 µM, first compound 0.1 µM
[9] = second compound 0.003 µM, first compound 0.316 µM
[10] = second compound 0.003 µM, first compound 1 µM
[11] = second compound 0.003 µM, first compound 3.16 µM
[12] = second compound 0.003 µM, first compound 10 µM
[13] = second compound 0.00949 µM, first compound 0.0316 µM
[14] = second compound 0.00949 µM, first compound 0.1 µM
[15] = second compound 0.00949 µM, first compound 0.316 µM
[16] = second compound 0.00949 µM, first compound 1 µM
[17] = second compound 0.00949 µM, first compound 3.16 µM
[18] = second compound 0.00949 µM, first compound 10 µM
[19] = second compound 0.03 µM, first compound 0.0316 µM
[20] = second compound 0.03 µM, first compound 0.1 µM
[21] = second compound 0.03 µM, first compound 0.316 µM
[22] = second compound 0.03 µM, first compound 1 µM
[23] = second compound 0.03 µM, first compound 3.16 µM
[24] = second compound 0.03 µM, first compound 10 µM
[25] = second compound 0.0949 µM, first compound 0.0316 µM
[26] = second compound 0.0949 µM, first compound 0.1 µM
[27] = second compound 0.0949 µM, first compound 0.316 µM
[28] = second compound 0.0949 µM, first compound 1 µM
[29] = second compound 0.0949 µM, first compound 3.16 µM
[30] = second compound 0.0949 µM, first compound 10 µM
[31] = second compound 0.3 µM, first compound 0.0316 µM
[32] = second compound 0.3 µM, first compound 0.1 µM
[33] = second compound 0.3 µM, first compound 0.316 µM
[34] = second compound 0.3 µM, first compound 1 µM
[35] = second compound 0.3 µM, first compound 3.16 µM
[36] = second compound 0.3 µM, first compound 10 µM
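Also: spheroids exposed to agents for one week before readout.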
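For viability, T/C in this document: tumour cells co-cultured with HUVEC and mesenchymal stem cells in spheroids.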

CC1(O)CCCC1n1c(=O)c(C(F)F)cc2cnc(NC3CCN(S(C)(=O)=O)CC3)nc21 (stereo unspecified) + CCn1c(-c2cccnc2C(C)OC)c2c3cc(ccc31)N1CCOC(CC(NC(=O)C(C(C)C)N(C)C(=O)C3(F)CCN(C(=O)C#CC(C)(C)N(C)C)CC3)C(=O)N3CCCC(N3)C(=O)OCC(C)(C)C2)C1
active: viability, T/C [6] 2.35% | viability, T/C [12] 2.96% | viability, T/C [24] 2.85% | viability, T/C [30] 2.46% | viability, T/C [36] 2.35%
97.9 nM: IC50 (second compound 0.3 µM)
202 nM: IC50 (second compound 0.000949 µM)
126 nM: IC50 (second compound 0.003 µM)
inactive: viability, T/C [1] 89.8% | viability, T/C [2] 61.3% | viability, T/C [3] 31.9% | viability, T/C [4] 38.7% | viability, T/C [5] 23.8% | viability, T/C [7] 76% | viability, T/C [8] 46.7% | viability, T/C [9] 31.2% | viability, T/C [10] 34.5% | viability, T/C [11] 21.3% | viability, T/C [13] 71.9% | viability, T/C [14] 43.5% | viability, T/C [15] 33.3% | viability, T/C [16] 36.8% | viability, T/C [17] 33.7% | viability, T/C [18] 2.22% | viability, T/C [19] 66.2% | viability, T/C [20] 45.8% | viability, T/C [21] 32.1% | viability, T/C [22] 34.5% | viability, T/C [23] 27.8% | viability, T/C [25] 55.7% | viability, T/C [26] 56.5% | viability, T/C [27] 27.5% | viability, T/C [28] 27.9% | viability, T/C [29] 33.9% | viability, T/C [31] 68.5% | viability, T/C [32] 51.2% | viability, T/C [33] 27.1% | viability, T/C [34] 25.7% | viability, T/C [35] 20.3%
107 nM: IC50 (second compound 0.03 µM)
80.8 nM: IC50 (second compound 0.0949 µM)
134 nM: IC50 (second compound 0.00949 µM)

CCC(CC)c1cc(NC2CCC(N)C2)n2nccc2n1 (stereo unspecified) + CCn1c(-c2cccnc2C(C)OC)c2c3cc(ccc31)N1CCOC(CC(NC(=O)C(C(C)C)N(C)C(=O)C3(F)CCN(C(=O)C#CC(C)(C)N(C)C)CC3)C(=O)N3CCCC(N3)C(=O)OCC(C)(C)C2)C1
inactive: viability, T/C [1] 78.9% | viability, T/C [2] 83.2% | viability, T/C [3] 80.2% | viability, T/C [4] 64.3% | viability, T/C [7] 72% | viability, T/C [8] 85.8% | viability, T/C [9] 72.8% | viability, T/C [10] 51% | viability, T/C [13] 85.2% | viability, T/C [14] 70.9% | viability, T/C [15] 69.5% | viability, T/C [16] 48% | viability, T/C [19] 74% | viability, T/C [20] 70.5% | viability, T/C [21] 69.2% | viability, T/C [22] 48% | viability, T/C [25] 83.6% | viability, T/C [26] 70.2% | viability, T/C [27] 75% | viability, T/C [28] 44.2% | viability, T/C [31] 76.8% | viability, T/C [32] 69.9% | viability, T/C [33] 61.7% | viability, T/C [34] 33.5%
808 nM: IC50 (second compound 0.0949 µM)
1300 nM: IC50 (second compound 0.000949 µM)
508 nM: IC50 (second compound 0.3 µM)
active: viability, T/C [5] 1.95% | viability, T/C [6] 0.98% | viability, T/C [11] 1.27% | viability, T/C [12] 1.35% | viability, T/C [17] 1.95% | viability, T/C [18] 0.75% | viability, T/C [23] 1.63% | viability, T/C [24] 1.21% | viability, T/C [29] 1.61% | viability, T/C [30] 1.11% | viability, T/C [35] 1.98% | viability, T/C [36] 0.91%
877 nM: IC50 (second compound 0.00949 µM)
1020 nM: IC50 (second compound 0.003 µM)
903 nM: IC50 (second compound 0.03 µM)

CCN1CCN(Cc2ccc(Nc3ncc(F)c(-c4cc(F)c5nc(C)n(C(C)C)c5c4)n3)nc2)CC1 + CCn1c(-c2cccnc2C(C)OC)c2c3cc(ccc31)N1CCOC(CC(NC(=O)C(C(C)C)N(C)C(=O)C3(F)CCN(C(=O)C#CC(C)(C)N(C)C)CC3)C(=O)N3CCCC(N3)C(=O)OCC(C)(C)C2)C1
160 nM: IC50 (second compound 0.3 µM)
146 nM: IC50 (second compound 0.03 µM)
inactive: viability, T/C (second compound 0.000949 µM, first compound 0.00316 µM) 73.5% | viability, T/C (second compound 0.000949 µM, first compound 0.01 µM) 80.4% | viability, T/C [1] 74.3% | viability, T/C [2] 61.5% | viability, T/C [3] 50.1% | viability, T/C [4] 31.5% | viability, T/C (second compound 0.003 µM, first compound 0.00316 µM) 71.8% | viability, T/C (second compound 0.003 µM, first compound 0.01 µM) 76.9% | viability, T/C [7] 68.8% | viability, T/C [8] 69.9% | viability, T/C [9] 42.3% | viability, T/C [10] 28.9% | viability, T/C (second compound 0.00949 µM, first compound 0.00316 µM) 66% | viability, T/C (second compound 0.00949 µM, first compound 0.01 µM) 77.1% | viability, T/C [13] 66.5% | viability, T/C [14] 56.8% | viability, T/C [15] 39.2% | viability, T/C [16] 34% | viability, T/C (second compound 0.03 µM, first compound 0.00316 µM) 74.2% | viability, T/C (second compound 0.03 µM, first compound 0.01 µM) 76.5% | viability, T/C [19] 69.6% | viability, T/C [20] 51.8% | viability, T/C [21] 45.4% | viability, T/C [22] 36.3% | viability, T/C (second compound 0.0949 µM, first compound 0.00316 µM) 76.8% | viability, T/C (second compound 0.0949 µM, first compound 0.01 µM) 65.5% | viability, T/C [25] 58.5% | viability, T/C [26] 61.6% | viability, T/C [27] 36.4% | viability, T/C [28] 25.4% | viability, T/C (second compound 0.3 µM, first compound 0.00316 µM) 67.2% | viability, T/C (second compound 0.3 µM, first compound 0.01 µM) 59.1% | viability, T/C [31] 59.3% | viability, T/C [32] 58% | viability, T/C [33] 39.3% | viability, T/C [34] 27.4%
229 nM: IC50 (second compound 0.003 µM)
286 nM: IC50 (second compound 0.000949 µM)
132 nM: IC50 (second compound 0.0949 µM)
154 nM: IC50 (second compound 0.00949 µM)

— PubChem BioAssay AID2060894 (Molecular Pharmacology Branch, DTP, NCI, 2025)
